Test results published in ChEMBL document CHEMBL1139797, “Conversion of the LXR-agonist TO-901317--from inverse to normal modulation of gamma-secretase by addition of a carboxylic acid and a lipophilic anchor” (Bioorg Med Chem Lett, 2007).
The source made the active and inactive calls. The calls are words filed in the database; no cut-off is given here.

Tests used:
Type in all cases: cell-based
Gamma-secretase [1] = assay: Effect on gamma-secretase activity in human H4 cells expressing APP695 assessed as reduction of Amyloid beta-38 formation by LPECL assay
Gamma-secretase [2] = assay: (§1) Effect on gamma-secretase activity in human H4 cells expressing APP695 assessed as reduction of Amyloid beta-40 formation LPECL assay
H4 = assay: Cytotoxicity against human H4 cells assessed as reduction of viability
Gamma-secretase [3] = assay: Effect on gamma-secretase activity in human H4 cells expressing APP695 assessed as increase in Amyloid beta-42 formation LPECL assay
Gamma-secretase [4] = assay: Effect on gamma-secretase activity in human H4 cells expressing APP695 assessed as increase in Amyloid beta38 formation by LPECL assay
Gamma-secretase [5] = assay: Effect on gamma-secretase activity in human H4 cells expressing APP695 assessed as reduction of Amyloid beta-42 formation LPECL assay
[6] = target: Gamma-secretase (Homo sapiens) (UniProt Q96BI3+Q9NZ42+Q8WW43+P49768+Q92542+P49810); assay: as §1

CCCCCCCCN(c1ccc(OCC(=O)OC(C)(C)C)cc1)S(=O)(=O)c1cc(C(F)(F)F)cc(C(F)(F)F)c1
IC50 (Gamma-secretase [1]): 13.3 µM
IC50 (Gamma-secretase [2]): > 40 µM
Activity (H4): > 40 µM
EC50 (Gamma-secretase [3]): 6.2 µM

CC(C)c1cc(C(C)C)c(S(=O)(=O)n2c3ccc(Cl)cc3c3ccc(C(C)C(=O)O)cc32)c(C(C)C)c1 (stereo not given)
EC50 (Gamma-secretase [4]): 9.3 µM
Activity (H4): 40 µM

CC(C)c1cc(C(C)C)c(S(=O)(=O)n2c3ccccc3c3ccc(OCC(=O)O)cc32)c(C(C)C)c1
EC50 (Gamma-secretase [4]): 7.8 µM
Activity (H4): 20 µM

CCCCCCCCCCn1c2ccccc2c2ccc(OCC(=O)O)cc21
Activity (H4): > 40 µM

O=S(=O)(c1ccccc1)N(CC(F)(F)F)c1ccc(C(O)(C(F)(F)F)C(F)(F)F)cc1 [T091317]
IC50 (Gamma-secretase [1]): 4.5 µM
IC50 (Gamma-secretase [2]): > 40 µM
EC50 (Gamma-secretase [3]): 3.6 µM

CCCCCCCCCCn1c2ccc(Cl)cc2c2ccc(C(C)C(=O)O)cc21 (stereo not given)
EC50 (Gamma-secretase [4]): 5.8 µM
Activity (H4): 40 µM

CCCCCCCCN(c1ccc(OCC(=O)O)cc1)S(=O)(=O)c1cc(C(F)(F)F)cc(C(F)(F)F)c1
IC50 (Gamma-secretase [5]): 19.6 µM
EC50 (Gamma-secretase [4]): 23.7 µM
IC50 (Gamma-secretase [2]): > 40 µM
Activity (H4): 40 µM

Cc1ccc(S(=O)(=O)n2c3ccc(Cl)cc3c3ccc(C(C)C(=O)OCc4ccccc4)cc32)cc1 (stereo not given)
IC50 (Gamma-secretase [1]): 20 µM
Activity [6]: inactive
Activity (H4): > 40 µM
EC50 (Gamma-secretase [3]): 20 µM

CC(C)(C)OC(=O)COc1ccc(NS(=O)(=O)c2cc(C(F)(F)F)cc(C(F)(F)F)c2)cc1
IC50 (Gamma-secretase [1]): > 40 µM
IC50 (Gamma-secretase [2]): > 40 µM
Activity (H4): > 40 µM
EC50 (Gamma-secretase [3]): 10.6 µM

CC(C(=O)OCc1ccccc1)c1ccc2c3cc(Cl)ccc3n(S(=O)(=O)c3cc(C(F)(F)F)cc(C(F)(F)F)c3)c2c1 (stereo not given)
IC50 (Gamma-secretase [1]): > 20 µM
IC50 (Gamma-secretase [2]): > 40 µM
Activity (H4): > 40 µM
EC50 (Gamma-secretase [3]): > 20 µM
